Results on 16 compounds are retold here after patent publication US20250214991A1 (Oncopia Therapeutics, Inc. d/b/a/ SK Life Science Labs, priority 2022, published 2025).

Usually IC50 stands for the concentration that inhibits the measured activity by half. A lower IC50 goes with greater potency in that assay.

Assay [1] concerns the target CRBN/DDB1 (Homo sapiens (Human), UniProt Q96SW2). Nature of the assay: IC50 measurements for binding to CRBN/DDB1 (HTRF). Conditions: His tagged CRBN+DDB, Cy5-labeled Thalidomide probe, one hour. The protocol: In vitro Assay: IC50 Measurements for binding to CRBN/DDB1 (Table E1)
The binding potency was determined using HTRF assay technology (Perkin Elmer). Compounds were serially diluted in DMSO and 0.2 μL volume was transferred to white 384-well plate. The reaction was conducted in total volume of 20 μL with addition of 2 nM His tagged CRBN+DDB−DLS7+CXU4 (Wuxi, catalogue #RP210521GA) to compounds followed by addition of 60 nM Fluorescent probe Cy5-labeled Thalidomide (Tenova Pharma, catalogue #T52461), and 0.4 nM of MAb Anti-6HIS Tb cryptate Gold (Cisbio, catalogue #61HI2TLA in the assay buffer (50 mM HEPES pH 7.5, 1 mM TCEP, 0.01% Brij-35, 50 mM NaCl, and 0.1% BSA). After one hour incubation at room temperature, the HTRF signals were read on Envision reader (Perkin Elemer). Data was analyzed using XLfit using four parameters dose response curve to determine IC50s. A: IC50<0.1 μM; B: 0.1 μM<IC50<[…]; C: 0.5 μM<IC50<1 μM; D: 1 μM<IC50<5 μM; E: 5 μM<IC50<10 μM
In general terms: In TR-FRET formats the signal depends on donor and acceptor labels being close together.

In assay [2] the target is IKZF2 (Homo sapiens (Human), UniProt Q96SW2+Q9UKS7). Nature of the assay: In vitro IKZF2 HiBit Assay (HEK293T Flp-in-HiBiT cells). It is filed as cell-based. Conditions: HEK293T Flp-in-HiBiT cells, 6 hrs incubation; for DC50: read-out: IKZF2 HiBit DC50; for Dmax: HEK-293T, read-out: IKZF2 HiBit Dmax (%). A digest of the protocol:
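Remaining tagged Helios was read as lytic HiBiT/LgBiT luminescence normalized to DMSO, yielding binned DC50 and Dmax values. Treatment ran 6 h, with compounds at 11 three-fold doses diluted from 1 mM and 0.1% final DMSO. The cells were HEK293T Flp-in with CRISPR knock-in of HiBiT at the IKZF2 N-terminus.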
A general note: HiBiT is a short tag that completes a luciferase, so light tracks the accessible tagged protein.

Assay [3] has as its target IKZF1 (Homo sapiens (Human), UniProt Q13422+Q96SW2). The experiment in a line: In vitro IKZF1 HiBit Assay (HEK293T Flp-in-HiBiT-IKZF1 stable cell line). It is filed as cell-based. The conditions noted are these: HEK293T Flp-in-HiBiT-IKZF1 stable cell line, 6 hrs incubation; for DC50: read-out: IKZF1 HiBit DC50; for Dmax: HEK-293T, read-out: IKZF1 HiBit Dmax (%). A digest of the protocol:
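Degradation was measured as loss of luminescence from the HiBiT-IKZF1 tag after 6 h compound treatment, with 0.1% final DMSO, in stable HEK293T Flp-in cells. Values were normalized to DMSO, giving the 50% degradation concentration and the maximal degradation range.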

SMILES strings stand for the structures. Some results are limits rather than exact numbers.

Chain of IKZF1 (Q13422 whole entry): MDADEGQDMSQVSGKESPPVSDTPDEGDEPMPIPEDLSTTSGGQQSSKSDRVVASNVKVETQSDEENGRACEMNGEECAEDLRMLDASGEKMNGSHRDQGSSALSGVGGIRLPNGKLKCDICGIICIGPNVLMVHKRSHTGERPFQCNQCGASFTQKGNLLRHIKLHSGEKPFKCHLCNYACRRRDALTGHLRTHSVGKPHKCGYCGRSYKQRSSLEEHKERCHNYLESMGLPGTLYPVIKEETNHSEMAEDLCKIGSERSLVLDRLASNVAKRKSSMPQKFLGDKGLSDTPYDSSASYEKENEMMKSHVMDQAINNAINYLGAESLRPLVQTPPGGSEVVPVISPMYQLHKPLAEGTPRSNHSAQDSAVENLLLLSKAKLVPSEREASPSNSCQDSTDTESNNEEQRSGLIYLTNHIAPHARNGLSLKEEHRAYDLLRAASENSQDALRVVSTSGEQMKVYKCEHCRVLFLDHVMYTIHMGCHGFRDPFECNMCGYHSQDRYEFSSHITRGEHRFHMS
Chain of IKZF1 (Q96SW2 whole entry): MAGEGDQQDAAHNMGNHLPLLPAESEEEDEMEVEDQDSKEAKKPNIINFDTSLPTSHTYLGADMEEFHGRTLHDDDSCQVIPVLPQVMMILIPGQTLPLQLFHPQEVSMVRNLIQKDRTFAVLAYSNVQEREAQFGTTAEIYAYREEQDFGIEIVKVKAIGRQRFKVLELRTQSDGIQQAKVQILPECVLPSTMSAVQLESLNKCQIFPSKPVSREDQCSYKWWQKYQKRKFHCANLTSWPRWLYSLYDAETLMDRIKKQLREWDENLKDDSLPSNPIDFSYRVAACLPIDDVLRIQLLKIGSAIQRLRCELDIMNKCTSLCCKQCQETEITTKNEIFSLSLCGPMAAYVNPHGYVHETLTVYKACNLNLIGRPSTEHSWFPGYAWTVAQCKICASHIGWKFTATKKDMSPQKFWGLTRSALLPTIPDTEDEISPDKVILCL
Chain of IKZF1 (Q16531 2-1140 partner): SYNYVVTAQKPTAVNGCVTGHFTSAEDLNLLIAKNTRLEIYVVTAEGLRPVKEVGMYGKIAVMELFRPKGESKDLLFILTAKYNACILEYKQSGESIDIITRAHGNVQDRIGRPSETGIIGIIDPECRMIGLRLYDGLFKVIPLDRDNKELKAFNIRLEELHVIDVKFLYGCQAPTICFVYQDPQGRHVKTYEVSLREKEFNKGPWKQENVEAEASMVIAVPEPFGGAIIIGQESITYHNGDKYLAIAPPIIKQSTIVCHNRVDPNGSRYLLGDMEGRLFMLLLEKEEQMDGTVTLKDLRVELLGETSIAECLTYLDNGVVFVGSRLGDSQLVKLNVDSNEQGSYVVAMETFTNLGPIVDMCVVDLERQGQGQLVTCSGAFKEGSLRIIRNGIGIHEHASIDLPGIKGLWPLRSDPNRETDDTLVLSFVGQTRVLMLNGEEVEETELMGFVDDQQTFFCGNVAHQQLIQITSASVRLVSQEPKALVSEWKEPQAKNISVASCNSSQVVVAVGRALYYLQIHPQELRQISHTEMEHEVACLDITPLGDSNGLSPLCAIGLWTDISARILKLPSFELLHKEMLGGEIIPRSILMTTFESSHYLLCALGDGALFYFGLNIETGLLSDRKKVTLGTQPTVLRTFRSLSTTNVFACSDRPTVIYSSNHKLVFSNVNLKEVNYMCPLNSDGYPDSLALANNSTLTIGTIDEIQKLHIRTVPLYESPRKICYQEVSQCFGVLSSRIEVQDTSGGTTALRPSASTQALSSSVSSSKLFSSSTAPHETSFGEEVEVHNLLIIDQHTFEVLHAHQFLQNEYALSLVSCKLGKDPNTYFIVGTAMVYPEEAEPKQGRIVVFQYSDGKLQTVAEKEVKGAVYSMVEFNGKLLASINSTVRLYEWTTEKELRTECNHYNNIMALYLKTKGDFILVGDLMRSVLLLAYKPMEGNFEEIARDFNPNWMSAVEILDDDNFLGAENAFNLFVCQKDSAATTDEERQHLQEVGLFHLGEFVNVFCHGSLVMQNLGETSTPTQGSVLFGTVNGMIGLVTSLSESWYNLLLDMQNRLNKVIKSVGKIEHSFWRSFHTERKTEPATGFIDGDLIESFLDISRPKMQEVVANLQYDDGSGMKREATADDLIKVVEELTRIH
Chain of CRBN/DDB1 (Q96SW2 whole entry, species assumed): as the sequence (Q96SW2 whole entry) above
Chain of CRBN/DDB1 (Q16531 whole entry partner, species assumed): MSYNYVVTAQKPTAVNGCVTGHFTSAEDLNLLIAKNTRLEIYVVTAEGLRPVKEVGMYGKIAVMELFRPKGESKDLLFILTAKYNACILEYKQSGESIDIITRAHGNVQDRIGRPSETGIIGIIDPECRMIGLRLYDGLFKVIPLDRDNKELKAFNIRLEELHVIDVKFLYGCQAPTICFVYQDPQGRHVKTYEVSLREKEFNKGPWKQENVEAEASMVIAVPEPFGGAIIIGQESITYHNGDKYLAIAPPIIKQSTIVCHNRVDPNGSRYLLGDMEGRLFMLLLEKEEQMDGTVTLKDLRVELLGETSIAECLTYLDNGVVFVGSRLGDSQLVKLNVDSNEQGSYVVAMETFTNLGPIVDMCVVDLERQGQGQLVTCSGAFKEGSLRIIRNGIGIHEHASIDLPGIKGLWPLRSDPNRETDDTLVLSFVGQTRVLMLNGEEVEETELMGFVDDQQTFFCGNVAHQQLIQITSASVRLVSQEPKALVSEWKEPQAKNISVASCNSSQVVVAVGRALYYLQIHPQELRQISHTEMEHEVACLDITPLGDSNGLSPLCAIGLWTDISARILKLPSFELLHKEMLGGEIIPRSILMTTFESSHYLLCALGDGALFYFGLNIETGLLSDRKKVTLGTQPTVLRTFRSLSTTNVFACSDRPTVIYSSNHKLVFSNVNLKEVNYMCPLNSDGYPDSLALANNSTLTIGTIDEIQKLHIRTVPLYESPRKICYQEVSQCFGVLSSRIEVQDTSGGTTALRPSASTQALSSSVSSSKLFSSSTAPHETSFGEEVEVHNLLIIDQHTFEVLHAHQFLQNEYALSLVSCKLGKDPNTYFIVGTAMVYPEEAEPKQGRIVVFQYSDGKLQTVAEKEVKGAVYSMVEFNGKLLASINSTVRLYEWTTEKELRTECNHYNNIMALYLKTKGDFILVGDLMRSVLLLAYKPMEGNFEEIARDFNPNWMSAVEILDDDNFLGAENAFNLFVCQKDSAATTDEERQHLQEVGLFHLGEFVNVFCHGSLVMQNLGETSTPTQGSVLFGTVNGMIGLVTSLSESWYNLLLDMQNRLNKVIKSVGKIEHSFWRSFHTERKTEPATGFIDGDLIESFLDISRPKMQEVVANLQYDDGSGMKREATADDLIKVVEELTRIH
Chain of IKZF2 (Q9UKS7 whole entry): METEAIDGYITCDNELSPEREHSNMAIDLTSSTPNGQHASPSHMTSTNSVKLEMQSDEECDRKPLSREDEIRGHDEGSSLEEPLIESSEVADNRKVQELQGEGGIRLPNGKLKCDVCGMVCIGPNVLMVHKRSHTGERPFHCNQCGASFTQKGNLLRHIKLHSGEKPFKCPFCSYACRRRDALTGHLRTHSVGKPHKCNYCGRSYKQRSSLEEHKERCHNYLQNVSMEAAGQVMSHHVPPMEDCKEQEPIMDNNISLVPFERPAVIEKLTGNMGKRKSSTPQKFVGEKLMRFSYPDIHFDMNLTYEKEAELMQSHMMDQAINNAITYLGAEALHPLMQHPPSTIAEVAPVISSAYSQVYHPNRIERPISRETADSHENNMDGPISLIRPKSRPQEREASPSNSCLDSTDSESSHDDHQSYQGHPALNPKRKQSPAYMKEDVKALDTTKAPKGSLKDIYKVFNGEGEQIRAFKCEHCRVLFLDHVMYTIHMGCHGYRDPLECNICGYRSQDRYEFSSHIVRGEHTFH
Chain of IKZF2 (Q96SW2 whole entry): as the sequence (Q96SW2 whole entry) above
Chain of IKZF2 (Q16531 2-1140 partner): as the sequence (Q16531 2-1140 partner) above

In assay [1], `O=C1CCC(N2Cc3cc(-c4cc(CN5CC(O)C5)c5ccn(C6COC6)c5n4)ccc3C2=O)C(=O)N1` (centres unmarked) [Example 160, 3-(5-(4-((3-hydroxyazetidin-1-yl)methyl)-1-(oxetan-3-yl)-1H-pyrrolo[2,3-b]pyridin-6-yl)-1-oxoisoindolin-2-yl) piperidine-2,6-dione] displayed an IC50 of less than 100 nM. In addition, in assay [2], the DC50 was 10 to 100 nM and the Dmax was 40 to 60%. In addition, in assay [3], the DC50 is more than 10000 nM and the Dmax is less than 20%.

In assay [1], `Cn1ccc2c(CN3CCC4(CCCC4)CC3)cc(-c3ccc4c(c3)CN(C3CCC(=O)NC3=O)C4=O)nc21` (centres unmarked) [Example 103, 3-(5-(4-((8-azaspiro[4.5]decan-8-yl)methyl)-1-methyl-1H-pyrrolo[2,3-b]pyridin-6-yl)-1-oxoisoindolin-2-yl) piperidine-2,6-dio] had a concentration for half-maximal inhibition (IC50) of 100 to 500 nM. In assay [2], the DC50 was in the range of 1 to 10 nM and the Dmax was more than 80%. Besides, in assay [3], the DC50 fell in the range of 10 to 100 nM and the Dmax was in the range of 20 to 40%.

In assay [1], `O=C1CCC(N2Cc3cc(-c4cc(CN5CC(F)C5)c5ccn(C6CC6)c5n4)ccc3C2=O)C(=O)N1` (centres unmarked) [Example 143, 3-(5-(1-cyclopropyl-4-((3-fluoroazetidin-1-yl)methyl)-1H-pyrrolo[2,3-b]pyridin-6-yl)-1-oxoisoindolin-2-yl) piperidine-2,6-dione] displayed an IC50 of 1000 to 5000 nM. Besides, in assay [2], the DC50 fell in the range of 1 to 10 nM and the Dmax is more than 80%. In addition, in assay [3], the DC50 was more than 10000 nM and the Dmax was less than 20%.

In assay [1], `O=C1CCC(N2Cc3cc(-c4cc(CN5CCCC5)c5[nH]nc(C6CCC6)c5n4)ccc3C2=O)C(=O)N1` (centres unmarked) [Example 224, 3-(5-(3-cyclobutyl-7-(pyrrolidin-1-ylmethyl)-1H-pyrazolo[4,3-b]pyridin-5-yl)-1-oxoisoindolin-2-yl) piperidine-2,6-dione] showed an IC50 of 1000 to 5000 nM. Also, in assay [2], the DC50 is less than 1 nM and the Dmax was 60 to 80%. In assay [3], the DC50 lay within 10 to 100 nM and the Dmax is 40 to 60%.

For the compound `Cn1ccc2c(Cn3ccnc3)cc(-c3ccc4c(c3)CN(C3CCC(=O)NC3=O)C4=O)nc21` (centres unmarked) [Example 88, 3-(5-(4-((1H-imidazol-1-yl)methyl)-1-methyl-1H-pyrrolo[2,3-b]pyridin-6-yl)-1-oxoisoindolin-2-yl) piperidine-2,6-dione], in assay [1], the IC50 lay in the range of 1000 to 5000 nM. Besides, the DC50 was 10 to 100 nM in assay [2] and more than 10000 nM in assay [3]. The figures for the Dmax in assay [2] and in assay [3] were more than 80% and less than 20%, respectively.

In assay [1], `CC(C)Cn1ccc2c(CN3CCCC3)cc(-c3ccc4c(c3)CN(C3CCC(=O)NC3=O)C4=O)nc21` (centres unmarked) [Example 140, 3-(5-(1-isobutyl-4-(pyrrolidin-1-ylmethyl)-1H-pyrrolo[2,3-b]pyridin-6-yl)-1-oxoisoindolin-2-yl) piperidine-2,6-dione] came in with a 50% inhibitory concentration (IC50) of 100 to 500 nM. Further, the DC50 is less than 1 nM in assay [2] and more than 10000 nM in assay [3]. Further, the Dmax in assay [2] was 20 to 40%; in assay [3], less than 20%.

Regarding `Cn1ccc2c(CN3CC4(COC4)C3)cc(-c3ccc4c(c3)CN(C3CCC(=O)NC3=O)C4=O)nc21` (centres unmarked) [Example 91, 3-(5-(4-((2-oxa-6-azaspiro[3.3]heptan-6-yl)methyl)-1-methyl-1H-pyrrolo[2,3-b]pyridin-6-yl)-1-oxoisoindolin-2-yl) piperidine-2,6-dione], the IC50 in assay [1] was 500 to 1000 nM. Besides, in assay [2], the DC50 fell in the range of 1 to 10 nM and the Dmax is more than 80%. Besides, in assay [3], the DC50 lay in the range of 10 to 100 nM and the Dmax lay within 20 to 40%.

As for `Cn1ccc2c(CN3CCC(CO)C3)cc(-c3ccc4c(c3)CN(C3CCC(=O)NC3=O)C4=O)nc21` (centres unmarked) [Example 96, 3-(5-(4-((3-(hydroxymethyl)pyrrolidin-1-yl)methyl)-1-methyl-1H-pyrrolo[2,3-b]pyridin-6-yl)-1-oxoisoindolin-2-yl) piperidine-2,6-dione], in assay [1], the IC50 lay in the range of 100 to 500 nM. Moreover, the DC50 lay within 1 to 10 nM in assay [2] and 10 to 100 nM in assay [3]. Further, the Dmax in assay [2] was more than 80%; in assay [3] it was 20 to 40%.

In assay [1], `O=C1CCC(N2Cc3cc(-c4cc(CN5CC(O)C5)c5cc[nH]c5n4)ccc3C2=O)C(=O)N1` (centres unmarked) [Example 111, 3-(5-(4-((3-hydroxyazetidin-1-yl)methyl)-1H-pyrrolo[2,3-b]pyridin-6-yl)-1-oxoisoindolin-2-yl) piperidine-2,6-dione] gave a half-inhibitory concentration (IC50) of 100 to 500 nM. In assay [2], the DC50 fell in the range of 10 to 100 nM and the Dmax lay in the range of 60 to 80%. Moreover, in assay [3], the DC50 is more than 10000 nM and the Dmax is less than 20%.

As to `CCn1ccc2nc(-c3ccc4c(c3)CN(C3CCC(=O)NC3=O)C4=O)cc(CN3CCC3)c21` (centres unmarked) [Example 124, 3-(5-(7-(azetidin-1-ylmethyl)-1-ethyl-1H-pyrrolo[3,2-b]pyridin-5-yl)-1-oxoisoindolin-2-yl) piperidine-2,6-dione], the IC50 in assay [1] lay in the range of 1000 to 5000 nM. Moreover, the results for the DC50 in assay [2] and in assay [3] were 1 to 10 nM and 10 to 100 nM, respectively. Moreover, the values for the Dmax in assay [2] and in assay [3] were more than 80% and 20 to 40%, respectively.

As to `Cn1ccc2c(CN3CC4COCC4C3)cc(-c3ccc4c(c3)CN(C3CCC(=O)NC3=O)C4=O)nc21` (centres unmarked) [Example 63, 3-(5-(1-methyl-4-((tetrahydro-1H-furo[3,4-c]pyrrol-5 (3H)-yl)methyl)-1H-pyrrolo[2,3-b]pyridin-6-yl)-1-oxoisoindolin-2-yl) piperidine-2,6-dione], the 50% inhibitory concentration (IC50) in assay [1] fell in the range of 100 to 500 nM. Further, in assay [2], the DC50 was less than 1 nM and the Dmax was more than 80%. Also, in assay [3], the DC50 was more than 10000 nM and the Dmax lay in the range of 20 to 40%.

In turn, `Cn1ccc2c(CN3CCCC3)cc(-c3cc4c(cc3Cl)C(=O)N(C3CCC(=O)NC3=O)C4)nc21` (centres unmarked) [Example 83, 3-(6-chloro-5-(1-methyl-4-(pyrrolidin-1-ylmethyl)-1H-pyrrolo[2,3-b]pyridin-6-yl)-1-oxoisoindolin-2-yl) piperidine-2,6-dione] came in with an IC50 in assay [1] of 1000 to 5000 nM. Moreover, in assay [2], the DC50 lay within 1 to 10 nM and the Dmax is more than 80%. For the same compound, in assay [3], the DC50 was more than 10000 nM and the Dmax is less than 20%.

With `CS(=O)(=O)C1CCN(Cc2cc(-c3ccc4c(c3)CN(C3CCC(=O)NC3=O)C4=O)nc3c2ccn3C2COC2)CC1` (centres unmarked) [Example 185, 3-(5-(4-((4-(methylsulfonyl)piperidin-1-yl)methyl)-1-(oxetan-3-yl)-1H-pyrrolo[2,3-b]pyridin-6-yl)-1-oxoisoindolin-2-yl) piperidine-2,6-dione], the IC50 in assay [1] lay in the range of 500 to 1000 nM. In addition, in assay [2], the DC50 was 100 to 1000 nM and the Dmax was 40 to 60%. Moreover, in assay [3], the DC50 is more than 10000 nM and the Dmax is less than 20%.

`Cc1cc(-c2ccc3c(c2)CN(C2CCC(=O)NC2=O)C3=O)nc2nc(CN3CCCC3)oc12` (centres unmarked) [Example 195, 3-(5-(7-methyl-2-(pyrrolidin-1-ylmethyl)oxazolo[4,5-b]pyridin-5-yl)-1-oxoisoindolin-2-yl) piperidine-2,6-dione]: the IC50 in assay [1] lay in the range of 1000 to 5000 nM. Besides, in assay [2], the DC50 was 10 to 100 nM and the Dmax is 60 to 80%. In assay [3], the DC50 was more than 10000 nM and the Dmax is less than 20%.

In the case of `O=C1CCC(N2Cc3cc(-c4cc(CN5CCC5)c5cc[nH]c5n4)ccc3C2=O)C(=O)N1` (centres unmarked) [Example 84, 3-(5-(4-(azetidin-1-ylmethyl)-1H-pyrrolo[2,3-b]pyridin-6-yl)-1-oxoisoindolin-2-yl) piperidine-2,6-dione], in assay [1], the IC50 was less than 100 nM. For the same compound, in assay [2], the DC50 lay within 1 to 10 nM and the Dmax was more than 80%. Further, in assay [3], the DC50 lay in the range of 10 to 100 nM and the Dmax lay within 20 to 40%.

Turning to `Cn1ccc2c(CN3CC4(CCOCC4)C3)cc(-c3ccc4c(c3)CN(C3CCC(=O)NC3=O)C4=O)nc21` (centres unmarked) [Example 100, 3-(5-(4-((7-oxa-2-azaspiro[3.5]nonan-2-yl)methyl)-1-methyl-1H-pyrrolo[2,3-b]pyridin-6-yl)-1-oxoisoindolin-2-yl) piperidine-2,6-dione], in assay [1], the IC50 fell in the range of 100 to 500 nM. In assay [2], the DC50 is less than 1 nM and the Dmax was more than 80%. In assay [3], the DC50 is 10 to 100 nM and the Dmax is 20 to 40%.
